# From patent publication EP3565534B1, “POLYMERIC NANOPARTICLES ENCAPSULATING A COMBINATION OF NATURAL BIO-ACTIVES TRANS-RESVERATROL(RSV) AND CELASTROL(CL), A PROCESS FOR THE PREPARATION AND USE THEREOF IN THE TREATMENT OF PROSTATE CANCER” (Università degli Studi di Sassari, priority 2017, dated 2018)
# Read-outs that look alike come from different tables or passages of the source.
# What was measured:
# [1] = cited from earlier work
# [2] = test system: prostate cancer cell lines (C-42, DU-145, and PC-3 cells); assay: MTT assay, antiproliferative efficacy, results stated for all three cell lines together; format: cell-based; conditions: 72 hours; non-encapsulated, alone; RSV 20, 30, 40 µM; CL 0.250, 0.375, 0.5 µM
# Procedure: Finally, in vitro cytotoxicity studies were performed in order to evaluate whether co-administration of encapsulated RSV and CL would have allowed an increase in the antiproliferative efficacy compared to single molecules, both as such and formulated in nanosystems, on androgen-dependent (C-42 cells) and androgen-independent (DU-145 and PC-3 cells) prostate cancer cell lines (PCa).
# The antiproliferative efficacy of the NPs of the present invention was evaluated using the MTT assay (3-[4,5-dimethylthiazol-2-yl]-2,5-diphenyl tetrazolium bromide) applying the procedure described in Sanna V., et al., Resveratrol-loaded nanoparticles based on poly(epsilon-caprolactone) and poly(D,L-lactic-co-glycolic acid)-poly(ethylene glycol) blend for prostate cancer treatment. Mol. Pharm. 2013 Oct 7;10(10):3871-81, which, as a result, is included herein as a reference in its entirety.
# Each experiment was repeated 3 or 5 times (n = 3 or 5).
Structure (SMILES),solubility in water ([1]; result in words),solubility in water [1],viability [2]
"CC1=C(O)C(=O)C=C2C1=CC=C1[C@@]2(C)CC[C@@]2(C)[C@@H]3C[C@](C)(C(=O)O)CC[C@]3(C)CC[C@]12C [CL, Celastrol]",insoluble,–,–
"Oc1ccc(/C=C/c2cc(O)cc(O)c2)cc1 [RSV, trans-3,5,4'-trihydroxy-stilbene]",–,3 mg/100 mL,reduction of viability that is generally dose-dependent
